# From patent US20240041842A1, “PHARMACEUTICAL COMPOSITION FOR INHIBITING CANCER METASTASIS” (INDUSTRY-ACADEMIC COOPERATION FOUNDATION, YONSEI UNIVERSITY, priority 2021, published 2024)
# Experiments:
# [1] = test system: Snail; assay: Western blot of Snail protein; format: cell-based, human; conditions: for effect of chloroquine (CQ) on Snail levels: MP or MOG combined with CQ
# Procedure: (§1) Cells were harvested, washed with PBS, and lysed on ice with RIPA buffer containing protease and phophatase inhibitor cocktail (GenDEPOT). After 15 minutes of incubation, the cell lysates were centrifuged at 15,000 rpm at 4° C. for 10 minutes. Protein concentration was measured by Bradford assay (Bio-rad, 500-0006). Equal amounts of total protein were placed on an SDS gel electrophoresis and transferred to a PVDF membrane (Bio-rad). The membrane was blocked with 5% skim milk for 1 hour at room temperature and incubated overnight at 4° C. with primary antibody in a buffer containing 0.1% Tween-20. Subsequently, the membrane was washed three times with Tween-PBS buffer and incubated for 1 hour at room temperature using a secondary antibody diluted in blocking buffer containing 0.1% Tween-20. Subsequently, the membrane was washed three times for 10 minutes each using Tween-TBS. Densitometry of Western blots was measured using ImageJ software.
# […] For autophagy activation, cells were'treated with 2 μM rapamycin (Selleckchem, S1039) for 5 hours. Modulation of intracellular ROS was performed with N-acetyl-cysteine (10 mM) (Sigma, A7250), hydrogen peroxide solution (100 μM to 200 μM) (Sigma, 216763), or CDDO-ME NRF2 activator (50 nM, 100 nM) (Sellckchem, S8078) for 4 to 24 hours. Intercellular calcium signal control was performed for 1 hour using BAPTA-AM (20 μM) (Sigma, A1076) or Calmidazolium Chloride (2.5 μM) (Sigma, C3930). […] For TFEB protein phosphorylation, tacrolimus (1 μM) (Selleckchem, S5003) was treated for 1 hour. […] During siRNA treatment, each siRNA was treated to a concentration of 40 to 50 nM and treated together with Lipofectamine RNAiMax (Thermo Fisher Scientific, 13778150) for transformation, and were used for experiments 48 to 72 hours later. For cDNA treatment, each cDNA was treated to a concentration of 1 to 2 μg in a 6-well plate and treated with Lipofectamine 2000 (Thermo Fisher Scientific, 11668019) for transformation, and were used for experiments 24 hours later.
# [2] = test system: Intracellular citrate; assay: Citrate assay; format: cell-based, human; conditions: HBEC-KL; 8 mM MP or 3 mM MOG in the presence of 50 uM CQ
# Procedure: Intracellular citrate levels were calculated in the pmol range using a citrate assay kit (Biovision, K655). After sonication, proteins were removed from the supernatant using a 10 kDa molecular weight cutoff spin column, followed by incubation at room temperature for 30 minutes with 50 μl citrate reaction mixture comprising enzyme mixture, developer and citrate probe. Citrate content was measured by reading OD 570 nm with an Envision Multimode Plate Reader (PerkinElmer 2105-0010, Waltham, MA, USA). After correcting the background in all readings, the value of each sample was determined and normalized to the protein concentration of each sample.
# [3] = test system: TFEB; assay: Western blot / immunoprecipitation-immunoblot of TFEB (acetylated, phosphorylated, total); format: cell-based, human; conditions: HBEC-KL; 50 uM STO-609, 24 hours
# Procedure: FIG. 11J illustrates a diagram of immunoblot results of the […] a control (left), and the immunoprecipitation-immunoblot result of TFEB acetylated HBEC-KL cells under the same conditions (right) is also shown,
# as §1
# For immunoprecipitation, equal amounts of lysate and Co-IP buffer (40 mM HEPES, pH 7.4, 120 mM NaCl, 2 mM EDTA, 0.3% CHAPS (Sigma, 10810118001), 10 mM pyrophosphate (Sigma, 221368), 10 mM glycerophosphate (Sigma, G9422), 50 mM NaF, phosphatase and protease inhibitor mixture) were mixed. Cell lysates (1 μg protein) were incubated overnight at 4° C. on anti-FLAG® M2 Affinity Gel (Sigma, A2220) or anti-acetyl-lysine antibody coated agarose (ImmuneChem Pharmaceuticals, ICP0388). The immunoprecipitate was then washed three times in IP buffer, and the immunoprecipitated complex was dissolved and separated by boiling in IP buffer for 5 minutes.
# [4] = test system: acetylated Snail; assay: Immunoprecipitation-immunoblot of acetylated Snail; format: cell-based, human; conditions: A549 luciferase cell line in vitro; 50 uM STO-609, 24 hours
# Procedure: Cell lysates (1 μg protein) were incubated overnight at 4° C. on anti-FLAG® M2 Affinity Gel (Sigma, A2220) or anti-acetyl-lysine antibody coated agarose (ImmuneChem Pharmaceuticals, ICP0388). The immunoprecipitate was then washed three times in IP buffer, and the immunoprecipitated complex was dissolved and separated by boiling in IP buffer for 5 minutes.
# For SDS-PAGE electrophoresis, the immunoprecipitated complex was transferred to a nitrocellulose membrane and the membrane was blocked and then incubated for 1 hour at room temperature with Primary antibody and secondary antibody (VeriBlot for IP Detection Reagent (HRP) (Abcam, #ab131366), and anti-mouse IgG tor IP (HRP) (Abeam, #ab131368)).
# After washing 3 times, the membrane was incubated with the secondary antibody.
# [5] = test system: A549-luc cells; assay: A549-luc tail vein injection metastasis model; format: in vivo; conditions: nude mice; 25 mg/kg, 100 mg/kg, qd, p.o. 28 consecutive days; compared to the vehicle-treated group
# Procedure: FIG. 13E illustrates role of STO-609 on cancer metastasis in an A549-luc tail vein injection model. After intravenous injection of A549-luc cells into nude mice, vehicle or STO-609 (25 mg/kg and 100 mg/kg qd) was injected for 28 days starting one day after the injection. A picture taken of a bioluminescent image when 4 weeks have elapsed after injection is shown (above). Analysis results of the total metastasis burden by photonic flux are shown (below). FIG. 13H illustrates the role of BMS303141 on cancer metastasis in an A549-luc tail vein injection model. A549-luc cells were intravenously injected into nude mice, and then vehicle or BMS303141 (100 mg/kg q.d.) was injected for 20 days starting one day after the injection. A bioluminescence image when 3 weeks have elapsed after injection is shown. 7- to 9-week-old BALB/c-nu Sic mice were obtained from SLC, Inc. (Shizuoka, Japan) and used, A549-luc cells (#JCRB1414) or SNAI1 shRNA-mediated knockdown A549-luc cells were injected at 3-4.5×10^6 cells through the tail vein of mice. After 3 to 4 weeks, metastasis was monitored by bioluminescence imaging analysis. More specifically, after injecting D-luciferin (75 mg/kg) (PerkinElmer, 122799) into the abdominal cavity of the mouse, images were obtained using an IVIS imaging system (IVIS 200, PerkinElmer, Waltham, MA, USA) in the supine position. Lung tissue was obtained for histopathological analysis. Images were analyzed using commercially available software (ImageScope; Aperio Technologies). In the STO-609 efficacy test, STO-609 (25 mg, 100 mg/kg/day) was orally administered to mice on the day of injection. In the BMS303141 efficacy test, BMS303141 (100 mg/kg/day) was orally administered to mice on the day of injection.
# [6] = test system: LC3; assay: Autophagic flux (LC3 Western blot, mRFP-GFP-LC3 lysosomal delivery assay); format: cell-based, human; conditions: HBEC-KL cell line; NAC or 50 uM STO-609, 24 hours
# Procedure: as §1, with “Representative GFP-LC3, RFP-LC3 and overlapping images are shown. In addition, red puncta (mRFP+/GFP−) and yellow puncta (mRFP+/GFP+) per cell were quantified and graphed (n=15 cells/treatment). Cells” for “Cells”
Structure (SMILES),"expression level of Snail decreased by siIDH1 ([1]; HBEC-KL, 3 mM MOG)","Snail levels when ACLY was reduced ([1]; HBEC-KL, MOG supplemented condition, ACLY siRNA)",effect of chloroquine (CQ) on Snail levels ([1]; HBEC-KL),effect of chloroquine (CQ) on citrate levels [2],"Snail expression level decreased by siCS ([1]; HBEC-KL, 8 mM MP)","Snail protein ([1]; HBEC-KL cell line, STO-609)","abnormal increase in Snail expression level by AMG-510 ([1]; KL cell lines, 1 uM AMG-510 and 50 uM STO-609)",acetylated TFEB [3],acetylated Snail [4],total metastasis burden (photonic flux) [5],total number of lung metastases [5],autophagic flux [6]
"COC(=O)CCC(=O)C(=O)OC [MOG, dimethyl-2-oxoglutarate]",restored,did not recover,completely reverses,completely reverses,,,,,,,,
"COC(=O)C(C)=O [MP, methyl pyruvate]",,,completely reverses,completely reverses,not increased,,,,,,,
O=C(O)c1ccc2c3c1cccc3c(=O)n1c3ccccc3nc21 [STO-609],,,,,,reduction,reduced,reduces,reduced,reduced,reduced,decreased
